# Test results published in the CheMixHub viscosity set.
# ± gives the uncertainty stated by the source.
# Assay: xn = mol fraction of the nth substance listed
smiles,measurement,setting,value
CN(C)N + O,viscosity,"293.15 K, 101.3 kPa, x1 = 0.0499",2.05 ± 0.06 mPa·s
same,viscosity,"293.15 K, 101.3 kPa, x1 = 0.1018",3.64 ± 0.12 mPa·s
same,viscosity,"293.15 K, 101.3 kPa, x1 = 0.1471",6.22 ± 0.21 mPa·s
same,viscosity,"293.15 K, 101.3 kPa, x1 = 0.2",8.22 ± 0.28 mPa·s
same,viscosity,"293.15 K, 101.3 kPa, x1 = 0.2498",8.46 ± 0.28 mPa·s
same,viscosity,"293.15 K, 101.3 kPa, x1 = 0.2984",7.51 ± 0.24 mPa·s
same,viscosity,"293.15 K, 101.3 kPa, x1 = 0.3466",6.25 ± 0.2 mPa·s
same,viscosity,"293.15 K, 101.3 kPa, x1 = 0.3995",4.78 ± 0.15 mPa·s
same,viscosity,"293.15 K, 101.3 kPa, x1 = 0.4482",4.23 ± 0.14 mPa·s
same,viscosity,"293.15 K, 101.3 kPa, x1 = 0.4994",2.95 ± 0.09 mPa·s
same,viscosity,"293.15 K, 101.3 kPa, x1 = 0.5955",2.28 ± 0.07 mPa·s
same,viscosity,"293.15 K, 101.3 kPa, x1 = 0.6986",1.27 ± 0.04 mPa·s
same,viscosity,"293.15 K, 101.3 kPa, x1 = 0.8064",0.9 ± 0.03 mPa·s
same,viscosity,"293.15 K, 101.3 kPa, x1 = 0.8999",0.69 ± 0.02 mPa·s
COC(C)=O + c1ccccc1,viscosity,"293.15 K, 101 kPa, x1 = 0.5",0.48 ± 0.013 mPa·s
same,viscosity,"298.15 K, 101 kPa, x1 = 0.0436",0.587 ± 0.005 mPa·s
same,viscosity,"298.15 K, 101 kPa, x1 = 0.1504",0.55 ± 0.005 mPa·s
same,viscosity,"298.15 K, 101 kPa, x1 = 0.2504",0.52 ± 0.004 mPa·s
same,viscosity,"298.15 K, 101 kPa, x1 = 0.3483",0.494 ± 0.004 mPa·s
same,viscosity,"298.15 K, 101 kPa, x1 = 0.441",0.472 ± 0.004 mPa·s
same,viscosity,"298.15 K, 101 kPa, x1 = 0.4878",0.462 ± 0.004 mPa·s
same,viscosity,"298.15 K, 101 kPa, x1 = 0.5512",0.449 ± 0.004 mPa·s
same,viscosity,"298.15 K, 101 kPa, x1 = 0.6492",0.431 ± 0.004 mPa·s
same,viscosity,"298.15 K, 101 kPa, x1 = 0.7483",0.415 ± 0.004 mPa·s
same,viscosity,"298.15 K, 101 kPa, x1 = 0.8514",0.401 ± 0.004 mPa·s
same,viscosity,"298.15 K, 101 kPa, x1 = 0.9486",0.389 ± 0.004 mPa·s
same,viscosity,"298.15 K, 101 kPa, x2 = 0.1115",0.363 ± 0.004 mPa·s
same,viscosity,"298.15 K, 101 kPa, x2 = 0.1916",0.374 ± 0.004 mPa·s
same,viscosity,"298.15 K, 101 kPa, x2 = 0.293",0.388 ± 0.004 mPa·s
same,viscosity,"298.15 K, 101 kPa, x2 = 0.3964",0.407 ± 0.004 mPa·s
same,viscosity,"298.15 K, 101 kPa, x2 = 0.4965",0.429 ± 0.004 mPa·s
same,viscosity,"298.15 K, 101 kPa, x2 = 0.6017",0.454 ± 0.005 mPa·s
same,viscosity,"298.15 K, 101 kPa, x2 = 0.6991",0.482 ± 0.005 mPa·s
same,viscosity,"298.15 K, 101 kPa, x2 = 0.7955",0.512 ± 0.005 mPa·s
same,viscosity,"298.15 K, 101 kPa, x2 = 0.8946",0.548 ± 0.005 mPa·s
same,viscosity,"303.15 K, 101 kPa, x1 = 0.5",0.428 ± 0.012 mPa·s
same,viscosity,"308.15 K, 101 kPa, x1 = 0.0436",0.513 ± 0.004 mPa·s
same,viscosity,"308.15 K, 101 kPa, x1 = 0.1504",0.485 ± 0.004 mPa·s
same,viscosity,"308.15 K, 101 kPa, x1 = 0.2504",0.461 ± 0.004 mPa·s
same,viscosity,"308.15 K, 101 kPa, x1 = 0.3483",0.441 ± 0.004 mPa·s
same,viscosity,"308.15 K, 101 kPa, x1 = 0.441",0.423 ± 0.004 mPa·s
same,viscosity,"308.15 K, 101 kPa, x1 = 0.4878",0.415 ± 0.004 mPa·s
same,viscosity,"308.15 K, 101 kPa, x1 = 0.5",0.406 ± 0.011 mPa·s
same,viscosity,"308.15 K, 101 kPa, x1 = 0.5512",0.405 ± 0.004 mPa·s
same,viscosity,"308.15 K, 101 kPa, x1 = 0.6492",0.39 ± 0.004 mPa·s
same,viscosity,"308.15 K, 101 kPa, x1 = 0.7483",0.377 ± 0.004 mPa·s
same,viscosity,"308.15 K, 101 kPa, x1 = 0.8514",0.365 ± 0.004 mPa·s
same,viscosity,"308.15 K, 101 kPa, x1 = 0.9486",0.356 ± 0.004 mPa·s
same,viscosity,"313.15 K, 101 kPa, x2 = 0.1115",0.321 ± 0.004 mPa·s
same,viscosity,"313.15 K, 101 kPa, x2 = 0.1916",0.33 ± 0.004 mPa·s
same,viscosity,"313.15 K, 101 kPa, x2 = 0.293",0.339 ± 0.004 mPa·s
same,viscosity,"313.15 K, 101 kPa, x2 = 0.3964",0.354 ± 0.004 mPa·s
same,viscosity,"313.15 K, 101 kPa, x2 = 0.4965",0.37 ± 0.004 mPa·s
same,viscosity,"313.15 K, 101 kPa, x2 = 0.6017",0.388 ± 0.004 mPa·s
same,viscosity,"313.15 K, 101 kPa, x2 = 0.6991",0.407 ± 0.004 mPa·s
same,viscosity,"313.15 K, 101 kPa, x2 = 0.7955",0.429 ± 0.004 mPa·s
same,viscosity,"313.15 K, 101 kPa, x2 = 0.8946",0.455 ± 0.004 mPa·s
OCCNCCO + OCCO,viscosity,"298 K, 101.3 kPa, x1 = 0.0049",17.27 ± 0.62 mPa·s
same,viscosity,"298 K, 101.3 kPa, x1 = 0.01",17.72 ± 0.64 mPa·s
same,viscosity,"298 K, 101.3 kPa, x1 = 0.044",20.95 ± 0.75 mPa·s
same,viscosity,"298 K, 101.3 kPa, x1 = 0.07152",25.16 ± 0.89 mPa·s
same,viscosity,"298 K, 101.3 kPa, x1 = 0.09514",28.03 ± 0.98 mPa·s
same,viscosity,"298 K, 101.3 kPa, x1 = 0.1331",37.15 ± 1.3 mPa·s
CCCCOCC(C)O (stereo not given) + CCO,viscosity,"298.15 K, 101.33 kPa, x1 = 0.05",1.229 ± 0.019 mPa·s
same,viscosity,"298.15 K, 101.33 kPa, x1 = 0.1",1.344 ± 0.021 mPa·s
same,viscosity,"298.15 K, 101.33 kPa, x1 = 0.15",1.462 ± 0.022 mPa·s
same,viscosity,"298.15 K, 101.33 kPa, x1 = 0.2",1.585 ± 0.024 mPa·s
same,viscosity,"298.15 K, 101.33 kPa, x1 = 0.25",1.705 ± 0.026 mPa·s
same,viscosity,"298.15 K, 101.33 kPa, x1 = 0.3",1.813 ± 0.027 mPa·s
same,viscosity,"298.15 K, 101.33 kPa, x1 = 0.35",1.918 ± 0.029 mPa·s
same,viscosity,"298.15 K, 101.33 kPa, x1 = 0.4",2.022 ± 0.03 mPa·s
same,viscosity,"298.15 K, 101.33 kPa, x1 = 0.45",2.12 ± 0.032 mPa·s
same,viscosity,"298.15 K, 101.33 kPa, x1 = 0.5",2.211 ± 0.033 mPa·s
same,viscosity,"298.15 K, 101.33 kPa, x1 = 0.55",2.305 ± 0.034 mPa·s
same,viscosity,"298.15 K, 101.33 kPa, x1 = 0.6",2.384 ± 0.035 mPa·s
same,viscosity,"298.15 K, 101.33 kPa, x1 = 0.65",2.469 ± 0.036 mPa·s
same,viscosity,"298.15 K, 101.33 kPa, x1 = 0.7",2.536 ± 0.037 mPa·s
same,viscosity,"298.15 K, 101.33 kPa, x1 = 0.7499",2.608 ± 0.038 mPa·s
same,viscosity,"298.15 K, 101.33 kPa, x1 = 0.7998",2.674 ± 0.039 mPa·s
same,viscosity,"298.15 K, 101.33 kPa, x1 = 0.85",2.737 ± 0.04 mPa·s
same,viscosity,"298.15 K, 101.33 kPa, x1 = 0.8998",2.788 ± 0.041 mPa·s
same,viscosity,"298.15 K, 101.33 kPa, x1 = 0.95",2.841 ± 0.042 mPa·s
same,viscosity,"308.15 K, 101.33 kPa, x1 = 0.05",1.013 ± 0.016 mPa·s
same,viscosity,"308.15 K, 101.33 kPa, x1 = 0.1",1.103 ± 0.017 mPa·s
same,viscosity,"308.15 K, 101.33 kPa, x1 = 0.15",1.193 ± 0.019 mPa·s
same,viscosity,"308.15 K, 101.33 kPa, x1 = 0.2",1.279 ± 0.02 mPa·s
same,viscosity,"308.15 K, 101.33 kPa, x1 = 0.25",1.363 ± 0.021 mPa·s
same,viscosity,"308.15 K, 101.33 kPa, x1 = 0.3",1.442 ± 0.022 mPa·s
same,viscosity,"308.15 K, 101.33 kPa, x1 = 0.35",1.516 ± 0.023 mPa·s
same,viscosity,"308.15 K, 101.33 kPa, x1 = 0.4",1.589 ± 0.024 mPa·s
same,viscosity,"308.15 K, 101.33 kPa, x1 = 0.45",1.656 ± 0.025 mPa·s
same,viscosity,"308.15 K, 101.33 kPa, x1 = 0.5",1.724 ± 0.026 mPa·s
same,viscosity,"308.15 K, 101.33 kPa, x1 = 0.55",1.779 ± 0.027 mPa·s
same,viscosity,"308.15 K, 101.33 kPa, x1 = 0.6",1.841 ± 0.028 mPa·s
same,viscosity,"308.15 K, 101.33 kPa, x1 = 0.65",1.891 ± 0.028 mPa·s
same,viscosity,"308.15 K, 101.33 kPa, x1 = 0.7",1.935 ± 0.029 mPa·s
same,viscosity,"308.15 K, 101.33 kPa, x1 = 0.7499",1.983 ± 0.03 mPa·s
same,viscosity,"308.15 K, 101.33 kPa, x1 = 0.7998",2.035 ± 0.03 mPa·s
same,viscosity,"308.15 K, 101.33 kPa, x1 = 0.85",2.067 ± 0.031 mPa·s
same,viscosity,"308.15 K, 101.33 kPa, x1 = 0.8998",2.099 ± 0.031 mPa·s
same,viscosity,"308.15 K, 101.33 kPa, x1 = 0.95",2.135 ± 0.032 mPa·s
same,viscosity,"318.15 K, 101.33 kPa, x1 = 0.05",0.846 ± 0.014 mPa·s
same,viscosity,"318.15 K, 101.33 kPa, x1 = 0.1",0.915 ± 0.015 mPa·s
same,viscosity,"318.15 K, 101.33 kPa, x1 = 0.15",0.982 ± 0.016 mPa·s
same,viscosity,"318.15 K, 101.33 kPa, x1 = 0.2",1.046 ± 0.017 mPa·s
same,viscosity,"318.15 K, 101.33 kPa, x1 = 0.25",1.108 ± 0.017 mPa·s
same,viscosity,"318.15 K, 101.33 kPa, x1 = 0.3",1.166 ± 0.018 mPa·s
same,viscosity,"318.15 K, 101.33 kPa, x1 = 0.35",1.22 ± 0.019 mPa·s
same,viscosity,"318.15 K, 101.33 kPa, x1 = 0.4",1.273 ± 0.02 mPa·s
same,viscosity,"318.15 K, 101.33 kPa, x1 = 0.45",1.321 ± 0.02 mPa·s
same,viscosity,"318.15 K, 101.33 kPa, x1 = 0.5",1.365 ± 0.021 mPa·s
same,viscosity,"318.15 K, 101.33 kPa, x1 = 0.55",1.409 ± 0.022 mPa·s
same,viscosity,"318.15 K, 101.33 kPa, x1 = 0.6",1.445 ± 0.022 mPa·s
same,viscosity,"318.15 K, 101.33 kPa, x1 = 0.65",1.49 ± 0.023 mPa·s
same,viscosity,"318.15 K, 101.33 kPa, x1 = 0.7",1.517 ± 0.023 mPa·s
same,viscosity,"318.15 K, 101.33 kPa, x1 = 0.7499",1.55 ± 0.024 mPa·s
same,viscosity,"318.15 K, 101.33 kPa, x1 = 0.7998",1.58 ± 0.024 mPa·s
same,viscosity,"318.15 K, 101.33 kPa, x1 = 0.85",1.609 ± 0.025 mPa·s
same,viscosity,"318.15 K, 101.33 kPa, x1 = 0.8998",1.633 ± 0.025 mPa·s
same,viscosity,"318.15 K, 101.33 kPa, x1 = 0.95",1.647 ± 0.025 mPa·s
